Source: patent US11026953B2, “3-beta-hydroxy-5-alpha-pregnan-20-one for use in treatment of essential tremor” (ASARINA PHARMA AB, priority 2017, dated 2021)

Key:
[1] = essential tremor, cited from earlier work
[2] = target: T1, human alpha1,beta2,gamma2 GABAA receptor (Homo sapiens, UniProt P14867+P47870); assay: Patch-clamp (Dynaflow) current response in HEK-293 cells expressing the human alpha1,beta2,gamma2 GABAA receptor; format: cell-based; conditions: for Antagonism of THDOC enhanced GABA effect, single dose: 1 μM UC1010 + 30 μM GABA + 200 nM THDOC; for Imax, maximal antagonism of THDOC effect in concentration-dependent experiment: 0.1-1 μM UC1010 + 30 μM GABA + 200 nM THDOC, max reached at 1 μM; for Androstandiol effect by itself (baseline shift), current response in absence of GABA: no GABA
T1 construct: expressed in transfected cells
Experimental: (§1) Assay for testing GABAA receptor effects of 3beta-hydroxy-5alpha-pregnan-20-one on human alpha1,beta,gamma and alpha4,beta,delta GABAA receptor subtype.
(§2) In these tests the protocol was optimized to be similar to the physiological conditions in the synaptic cleft.
(§3) Cell culture: HEK-293 cells, permanently transfected with the human alpha1,beta,gamma and alpha4,beta,delta GABAA receptor subtypes, were seeded at a density of 3×10^4/25 cm^2 in cellbind culture flask. The transfected cells were used for patch-clamp experiments 3 days after seeding. When using the cells for patch-clamp experiments the cells were washed twice with oxygen-bubbled extracellular (EC) solution (see below). About 5 mL EC was then added and the cells were kept in the incubator for about 15 minutes. After 15 minutes the cells came loose from the bottom of the flask and were separated by carefully sucking couple of times with a Pasteur pipette.
(§4) DYNAFLOW™ system with Resolve chip was used for patch-clamp experiments: The electrophysiological recordings from HEK-293 cells were performed under voltage-clamp conditions using patch-clamp technique and the DYNAFLOW™ system (DYNAFLOW™ Pro II Platform Zeiss Axiovert 25; Cellectricon AB, Sweden) with Resolve chips as application system.
(§5) Patch pipettes were pulled from borosilicate glass and polished to a resistance 2-5 MΩ when filled with suitable intracellular solution (IC) (pH was adjusted to 7.2) and immersed in bath solution (extracellular, EC) (pH is adjusted to 7.4). The recordings were made using an Axopatch 200B amplifier, a Digidata 1322A (Axon instruments, Foster city, USA). Data were acquired using the pCLAMP software sampled at 10 kHz, filtered at 2-10 kHz and analyzed with Clampfit (versions 9.0, both from Axon instruments, Foster city, USA). No higher series resistance than 20 MΩ between pipette and cell membrane was accepted. No series resistance compensation was used. The stability of series resistance was monitored repeatedly from the time course of capacitative transients during the experiments. The measured liquid-junction potential between EC and IC was subtracted in all data presented. An experiments were performed at room temperature (21-23° C.).
(§6) All steroids were dissolved to the concentration of 6 mM in DMSO. […] End solutions were the solutions added into the wells of the chip.
(§7) Electrophysiology: After compensating for the liquid junction potential a steady holding potential of −17 mV was used in all experiments. […] By using the holding potential of −17 mV and the intracellular solution with low chloride ion concentration the chloride ions flux into the cell when the receptors were activated.
The DYNAFLOW™ system allowed application of solutions for as short as 40 ms up to minutes in time.
In the experiments, THDOC and 3alpha-OH-adiol were used as the positive GABAA receptor modulating steroids.
(§8) Different incubation times were studied to achieve the optimal time for attain stable results and minimize the washout time.
(§9) Biological evaluation—HEK-293 cells, permanently transfected with human alpha1,beta,gamma and alpha4,beta,delta GABAA receptor subtypes and expressing these GABAA receptors.
(§10) Cell lines permanently expressing a functional human GABAA receptor was made in following steps. The GABAA receptor subunits alpha1,beta2,gamma2L or alpha4,beta3,delta including introduced Kozac sequences just before the start codons were subcloned into mammalian expression vectors containing Geneticin, Hygromycin B, and Zeocin resistance, respectively. A HEK-293 cell line stably expressing the three GABAA receptor subunits was produced by transfection of the subunits one at a time.

[3] = target: T2, human alpha4,beta3,delta GABAA receptor (Homo sapiens, UniProt P28472+P48169); assay: Patch-clamp (Dynaflow) current response in HEK-293 cells expressing the human alpha4,beta3,delta GABAA receptor; format: cell-based
T2 construct: expressed in transfected cells
Experimental: as §1, §2, §3, §4, §5, §6, §7
The DYNAFLOW™ system allowed application of solutions for as short as 40 ms up to minutes in time. […] Therefore, the first GABA application was always repeated twice and the second response was used in the analysis.
Washout: GABA is quite soluble in water and easy to washout from the receptor. […] Steroids on the other hand were difficult to dissolve in water and also difficult to washout from the receptor. In the experiments, THDOC and 3alpha-OH-adiol were used as the positive GABAA receptor modulating steroids. With 2 minutes washout time, 200 nM THDOC and 3alpha-OH-adiol was completely washed out as shown by neither an accumulative nor a desensitization effect.
as §8, §9
as §10, with “A HEK-293 cell line stably expressing the three GABAA receptor subunits was produced by transfection of the subunits one at a time.” left out

[4] = listed as 3beta-hydroxy-5alpha-pregnan-20-one
[5] = HEK293, read-out: Emax, androstandiol enhancement of GABA mediated current

T2 sequence (P48169 36-554): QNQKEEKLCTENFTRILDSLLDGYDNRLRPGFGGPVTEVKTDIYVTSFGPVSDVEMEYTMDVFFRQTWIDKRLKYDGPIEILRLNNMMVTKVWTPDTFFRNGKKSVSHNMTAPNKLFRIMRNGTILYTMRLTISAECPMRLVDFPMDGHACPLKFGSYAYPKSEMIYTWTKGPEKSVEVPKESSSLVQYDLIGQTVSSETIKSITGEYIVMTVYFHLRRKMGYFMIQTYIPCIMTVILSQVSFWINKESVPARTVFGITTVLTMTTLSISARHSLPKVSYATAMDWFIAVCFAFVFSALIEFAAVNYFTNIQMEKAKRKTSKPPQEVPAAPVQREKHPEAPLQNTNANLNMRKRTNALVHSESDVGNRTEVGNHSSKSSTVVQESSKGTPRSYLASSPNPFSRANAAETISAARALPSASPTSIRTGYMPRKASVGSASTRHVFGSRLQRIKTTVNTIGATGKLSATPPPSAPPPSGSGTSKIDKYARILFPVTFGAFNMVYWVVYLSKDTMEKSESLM
T2 sequence (P28472 26-473): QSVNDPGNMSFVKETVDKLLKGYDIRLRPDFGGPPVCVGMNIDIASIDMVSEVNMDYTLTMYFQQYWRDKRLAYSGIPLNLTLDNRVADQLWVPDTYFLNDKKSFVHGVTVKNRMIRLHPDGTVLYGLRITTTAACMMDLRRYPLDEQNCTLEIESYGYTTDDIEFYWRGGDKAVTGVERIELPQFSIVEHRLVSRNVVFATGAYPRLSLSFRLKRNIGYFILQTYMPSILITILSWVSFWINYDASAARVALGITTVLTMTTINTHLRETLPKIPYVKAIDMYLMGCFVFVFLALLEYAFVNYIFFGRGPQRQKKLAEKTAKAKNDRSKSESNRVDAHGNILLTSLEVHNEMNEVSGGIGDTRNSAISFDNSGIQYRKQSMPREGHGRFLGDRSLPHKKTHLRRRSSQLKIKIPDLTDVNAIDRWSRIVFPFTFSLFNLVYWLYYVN
T2 sequence (O14764 17-452 partner limits assumed): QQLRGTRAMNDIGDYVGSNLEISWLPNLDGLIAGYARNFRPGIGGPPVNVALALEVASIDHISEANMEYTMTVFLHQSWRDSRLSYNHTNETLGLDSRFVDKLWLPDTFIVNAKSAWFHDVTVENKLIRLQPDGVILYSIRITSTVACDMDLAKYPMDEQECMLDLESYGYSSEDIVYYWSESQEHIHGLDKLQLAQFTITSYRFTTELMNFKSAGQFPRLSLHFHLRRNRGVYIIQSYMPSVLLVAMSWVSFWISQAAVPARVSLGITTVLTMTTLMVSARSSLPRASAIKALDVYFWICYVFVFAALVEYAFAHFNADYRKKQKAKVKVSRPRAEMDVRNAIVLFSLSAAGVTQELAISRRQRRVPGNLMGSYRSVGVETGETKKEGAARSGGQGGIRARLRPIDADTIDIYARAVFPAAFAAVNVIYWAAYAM
T1 sequence (P14867 28-456): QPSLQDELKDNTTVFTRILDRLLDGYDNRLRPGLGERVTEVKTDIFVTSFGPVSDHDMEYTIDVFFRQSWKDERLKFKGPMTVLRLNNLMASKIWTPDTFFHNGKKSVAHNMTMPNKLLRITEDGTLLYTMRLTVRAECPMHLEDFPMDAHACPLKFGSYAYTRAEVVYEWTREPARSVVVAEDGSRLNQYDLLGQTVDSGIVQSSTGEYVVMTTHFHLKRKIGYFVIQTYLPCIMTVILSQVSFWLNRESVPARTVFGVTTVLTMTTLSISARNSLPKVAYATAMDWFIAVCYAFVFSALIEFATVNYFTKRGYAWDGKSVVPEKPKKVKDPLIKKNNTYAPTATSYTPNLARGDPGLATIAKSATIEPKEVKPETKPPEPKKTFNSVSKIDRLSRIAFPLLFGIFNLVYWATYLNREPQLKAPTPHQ
T1 sequence (P47870 26-512): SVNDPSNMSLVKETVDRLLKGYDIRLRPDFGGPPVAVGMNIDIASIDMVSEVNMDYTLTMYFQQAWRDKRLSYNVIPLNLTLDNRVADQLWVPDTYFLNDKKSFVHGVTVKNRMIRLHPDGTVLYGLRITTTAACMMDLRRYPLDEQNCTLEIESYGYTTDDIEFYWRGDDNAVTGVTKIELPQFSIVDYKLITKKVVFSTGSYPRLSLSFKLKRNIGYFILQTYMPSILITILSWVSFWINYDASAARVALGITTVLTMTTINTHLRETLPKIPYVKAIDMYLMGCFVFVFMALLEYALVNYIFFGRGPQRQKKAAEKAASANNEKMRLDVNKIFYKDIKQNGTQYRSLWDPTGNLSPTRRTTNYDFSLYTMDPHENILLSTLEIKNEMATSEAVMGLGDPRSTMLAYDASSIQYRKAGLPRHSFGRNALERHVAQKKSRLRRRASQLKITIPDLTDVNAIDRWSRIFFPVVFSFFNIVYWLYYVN
T1 sequence (P18507 40-475 partner): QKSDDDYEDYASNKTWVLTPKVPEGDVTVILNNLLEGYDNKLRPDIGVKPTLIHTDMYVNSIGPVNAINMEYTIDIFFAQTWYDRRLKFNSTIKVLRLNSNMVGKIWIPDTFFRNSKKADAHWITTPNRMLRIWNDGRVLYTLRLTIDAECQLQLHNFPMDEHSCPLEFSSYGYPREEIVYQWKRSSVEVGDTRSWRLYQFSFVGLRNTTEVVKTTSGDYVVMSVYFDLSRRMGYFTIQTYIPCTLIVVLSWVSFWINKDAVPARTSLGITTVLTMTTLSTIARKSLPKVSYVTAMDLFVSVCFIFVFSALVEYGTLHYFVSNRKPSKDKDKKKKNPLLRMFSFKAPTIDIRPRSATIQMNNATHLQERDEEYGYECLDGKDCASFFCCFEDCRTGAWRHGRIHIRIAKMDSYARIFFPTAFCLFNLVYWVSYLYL

Which “Reduction of tremor scores” value [1] does the source give for `Cc1nnc2n1-c1ccc(Cl)cc1C(c1ccccc1)=NC2` [alprazolam] here?
The value was 25%.

For `CCO` [Alcohol], which “Reduction in tremor scores” value ([1]; only during a short period (30 minutes) with a rebound later) is on record?
The value was 50%.

With `C[C@]12CC[C@@H](O)C[C@H]1CC[C@@H]1[C@@H]2CC[C@]2(C)[C@@H](C(=O)CO)CC[C@@H]12` [THDOC, Tetrahydrodeoxycorticosterone] as the compound, how does the “Imax/Emax, THDOC enhancement of GABA mediated current” value ([2]; 0.03-1 μM THDOC + 30 μM GABA, control 30 μM GABA set to 0) read?
Its value is “+115%”.

What about the “THDOC baseline shift, current response in absence of GABA” value (“THDOC baseline shift, current response” below) ([3]; 0.03 μM THDOC, no GABA, Mean ± SEM) of the same compound?
Its value is “+5 ± 3.3 pA”.

What about the “THDOC baseline shift, current response” value ([3]; 0.1 μM THDOC, no GABA, Mean ± SEM) of the same compound?
The value was “+15 ± 9.5 pA”.

What about the “THDOC baseline shift, current response” value ([3]; 0.3 μM THDOC, no GABA, Mean ± SEM) of the same compound?
Its value is “+12 ± 7.9 pA”.

And the “THDOC baseline shift, current response” value ([3]; 1 μM THDOC, no GABA, Mean ± SEM)?
Its value is “+69 ± 35 pA”.

And the “Emax, THDOC enhancement of GABA mediated current” value ([3]; 3 μM GABA)?
The value was 297%.

And the EC50 ([3]; read-out: EC50, THDOC enhancement of GABA mediated current, 3 μM GABA)?
The EC50 was 47 nM.

Which “Antagonism of THDOC enhanced GABA effect, single dose” value [2] does the source give for `CC(=O)[C@H]1CC[C@H]2[C@@H]3CC[C@H]4C[C@@H](O)CC[C@]4(C)[C@H]3CC[C@]12C` [UC1010, 3beta-hydroxy-5alpha-pregnan-20-one] here?
The value was −21 ± 4.6%.

And the “Antagonism of THDOC enhanced GABA effect, single dose” value [2, 4]?
The value was −22.3±5.3%.

What about the “Modulatory effect of UC1010 on GABA response” value ([2]; 1 μM UC1010 + 30 μM GABA, vs GABA alone, NS, n=9) of the same compound?
Its value is 10.3±7.8%.

What about the “Effect of 1 μM UC1010 on 8 μM Androstandiol + 30 μM GABA” value ([2]; 1 μM UC1010, steady state (phasic effect), Mean ± SEM) of the same compound?
Its value is −30 ± 1.7%.

And the “Effect of 1 μM UC1010 on 8 μM Androstandiol, baseline shift” value ([2]; 1 μM UC1010, tonic effect without GABA, Mean ± SEM)?
The value was −33 ± 7.6%.

What about the “Imax, maximal antagonism of THDOC effect in concentration-dependent experiment” value [2] of the same compound?
Its value is −21%.

What about the “Imax, maximal antagonism of THDOC effect in concentration-dependent experiment” value [2, 4] of the same compound?
The value was −21±4.6%.

And the “Effect of 1 μM UC1010 on 3 μM GABA response” value ([3]; 1 μM UC1010, 3 μM GABA, Mean ± SEM, N=11, NS)?
Its value is −6.7 ± 3.3%.

And the “Effect of 1 μM UC1010 on 0.6 μM Androstandiol + 3 μM GABA” value ([3]; 1 μM UC1010, Mean ± SEM)?
The value was −18 ± 2.0%.

And the “Effect of 1 μM UC1010 on 0.8 μM Androstandiol + 3 μM GABA” value ([3]; 1 μM UC1010, Mean ± SEM)?
The value was −22 ± 2.6%.

And the “Effect of 1 μM UC1010 on 0.1 μM THDOC alone baseline” value ([3]; 1 μM UC1010, THDOC induced baseline shift without GABA, Mean ± SEM)?
The value was −43 ± 3.5%.

What about the “Effect of UC1010 on GABA-mediated current response, GABA alone (in words)” value ([3]; 1 μM UC1010, data not shown) of the same compound?
The value was “without any significant effect”.

What about the “Effect of 1 μM UC1010 on 0.1 μM THDOC + 3 μM GABA” value ([3]; 1 μM UC1010, steady state, Mean ± SEM) of the same compound?
Its value is −26 ± 2.4%.

What about the “Effect of the compound by itself, current response” value ([3]; 1 μM, no GABA, no THDOC, N=11, NS vs EC solution) of the same compound?
The value was −0.4±0.3 pA.

With `C[C@]12CC[C@@H](O)C[C@@H]1CC[C@@H]1[C@@H]2CC[C@]2(C)C(O)CC[C@@H]12` (stereo partly drawn) [Androstandiol, 3alpha-hydroxy-5alpha-androstan-17-ol] as the compound, how does the “Androstandiol effect by itself (baseline shift), current response in absence of GABA” value ([2]; 3 μM androstandiol, Mean ± SEM) read?
The value was “+8 ± 3.6 pA”.

And the “Androstandiol effect by itself (baseline shift), current response in absence of GABA” value ([2]; 8 μM androstandiol, Mean ± SEM)?
The value was “+13 ± 2.3 pA”.

What about the “Androstandiol effect by itself (baseline shift), current response in absence of GABA” value ([2]; 10 μM androstandiol, Mean ± SEM) of the same compound?
The value was “+11 ± 1.5 pA”.

And the “Androstandiol effect by itself (baseline shift), current response in absence of GABA” value ([2]; 30 μM androstandiol, Mean ± SEM)?
The value was “+24 ± 6.8 pA”.

And the “Androstandiol effect by itself (baseline shift), current response in absence of GABA” value ([2]; 100 μM androstandiol, Mean ± SEM)?
The value was “+43 ± 5.7 pA”.

What about the Emax [2, 5] of the same compound?
The Emax was 281%.

And the “Potency relative to THDOC in enhancing the effect of GABA (less potent)” value ([2]; androstandiol vs THDOC)?
The value was 48 times.

And the “Potency at alpha4,beta3,delta relative to alpha1,beta2,gamma2 (higher)” value ([3]; 0.38 μM vs. 3.4 μM)?
The value was 10 times.

What about the “Androstandiol baseline shift, current response in absence of GABA” value ([3]; 3 μM androstandiol, no GABA, Mean ± SEM) of the same compound?
The value was “+8 ± 3.6 pA”.

And the “Androstandiol baseline shift, current response in absence of GABA” value ([3]; 10 μM androstandiol, no GABA, Mean ± SEM)?
Its value is “+13 ± 4.8 pA”.

And the Emax [3, 5]?
Its Emax is 142%.

For `CCC1(c2ccccc2)C(=O)NCNC1=O` [Primidone, primidone], which “Reduction of tremor scores” value [1] is on record?
The value was 35-50%.
